Assay results published in ChEMBL document CHEMBL1201861, “Genomics of Drug Sensitity in Cancer screening data, Wellcome Trust Sanger Institute”.

Legend:
EGI-1 = assay: cells; assay type: functional, cell-based; conditions: Homo sapiens;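 further: cell viability readout used to gauge growth inhibition of EGI-1 cells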
Description: SANGER: Inhibition of human EGI-1 cell growth in a cell viability assay.

RPMI-6666 = assay: cells; assay type: functional, cell-based, Homo sapiens; conditions: Homo sapiens, RPMI-6666
Description: SANGER: Inhibition of human RPMI-6666 cell growth in a cell viability assay.

G-402 = assay: cells; assay type: functional, cell-based; conditions: Homo sapiens
Description: SANGER: Inhibition of human G-402 cell growth in a cell viability assay.

CAMA-1 = assay: cells; assay type: functional, cell-based; conditions: Homo sapiens;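 further: growth inhibition of CAMA-1 cells, read out with a cell viability assay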
Description: SANGER: Inhibition of human CAMA-1 cell growth in a cell viability assay.

NCI-H1703 = assay: cells; assay type: functional, cell-based; conditions: Homo sapiens;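 further: growth inhibition of NCI-H1703 cells, read out via a cell viability assay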
Description: SANGER: Inhibition of human NCI-H1703 cell growth in a cell viability assay.

COLO-679 = assay: cells; assay type: functional, cell-based; conditions: Homo sapiens
Description: SANGER: Inhibition of human COLO-679 cell growth in a cell viability assay.

NCI-H1437 = assay: cells; assay type: functional, cell-based; conditions: Homo sapiens;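 further: growth inhibition of human NCI-H1437 cells, read out by a cell viability assay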
Description: SANGER: Inhibition of human NCI-H1437 cell growth in a cell viability assay.

ST486 = assay: SANGER: Inhibition of human ST486 cell growth in a cell viability assay.; assay type: functional, cell-based; conditions: Homo sapiens, ST486
Detroit 562 = assay: cells; assay type: functional, cell-based; conditions: Homo sapiens;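 further: growth inhibition of human Detroit 562 cells, read out by a cell viability assay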
Description: SANGER: Inhibition of human Detroit562 cell growth in a cell viability assay.

A2780 = assay: cells; assay type: functional, cell-based; conditions: Homo sapiens;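 further: growth inhibition of A2780 cells, read out with a cell viability assay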
Description: SANGER: Inhibition of human A2780 cell growth in a cell viability assay.

SiHa = assay: cells; assay type: functional, cell-based; conditions: Homo sapiens;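 further: Viability-based readout of growth inhibition in SiHa cells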
Description: SANGER: Inhibition of human SiHa cell growth in a cell viability assay.

MHH-ES-1 = assay: cells; assay type: functional, cell-based; conditions: Homo sapiens
Description: SANGER: Inhibition of human MHH-ES-1 cell growth in a cell viability assay.

Panc1005 = assay: cells; assay type: functional, cell-based; conditions: Homo sapiens;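 further: growth inhibition of human PANC-10-05 cells, measured by a cell viability assay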
Description: SANGER: Inhibition of human PANC-10-05 cell growth in a cell viability assay.

ChaGo-K-1 = assay: cells; assay type: functional, cell-based; conditions: Homo sapiens;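 further: growth inhibition of ChaGo-K-1 cells, read out with a cell viability assay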
Description: SANGER: Inhibition of human ChaGo-K-1 cell growth in a cell viability assay.

SAOS-2 = assay: cells; assay type: functional, cell-based; conditions: Homo sapiens;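 further: growth inhibition of human Saos-2 cells determined by a cell viability assay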
Description: SANGER: Inhibition of human Saos-2 cell growth in a cell viability assay.

MKN-45 = assay: cells; assay type: functional, cell-based; conditions: Homo sapiens;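 further: growth inhibition of human MKN-45 cells, measured with a cell viability assay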
Description: SANGER: Inhibition of human MKN45 cell growth in a cell viability assay.

ESS-1 = assay: cells; assay type: functional, cell-based; conditions: Homo sapiens;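 further: growth inhibition of human ESS-1 cells, read out by a cell viability assay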
Description: SANGER: Inhibition of human ESS-1 cell growth in a cell viability assay.

FaDu = assay: cells; assay type: functional, cell-based; conditions: Homo sapiens;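 further: cell viability readout of growth inhibition in FaDu cells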
Description: SANGER: Inhibition of human FADU cell growth in a cell viability assay.

GAMG = assay: cells; assay type: functional, cell-based; conditions: Homo sapiens;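 further: cell growth inhibition measured by a viability assay in the GAMG human cell line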
Description: SANGER: Inhibition of human GAMG cell growth in a cell viability assay.

COLO-678 = assay: cells; assay type: functional, cell-based; conditions: Homo sapiens
Description: SANGER: Inhibition of human COLO-678 cell growth in a cell viability assay.

MDA-MB-415 = assay: cells; assay type: functional, cell-based; conditions: Homo sapiens
NCI-H2171 = assay: cells; assay type: functional, cell-based, Homo sapiens; conditions: Homo sapiens, NCI-H2171;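 further: growth inhibition of human NCI-H2171 cells, read out by a cell viability assay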
Description: SANGER: Inhibition of human NCI-H2171 cell growth in a cell viability assay.

SIG-M5 = assay: cells; assay type: functional, cell-based, Homo sapiens; conditions: Homo sapiens, SIG-M5;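 further: cell viability assay read-out, measuring how strongly growth of cultured human SIG-M5 cells is inhibited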
Description: SANGER: Inhibition of human SIG-M5 cell growth in a cell viability assay.

NCI-H2081 = assay: cells; assay type: functional, cell-based, Homo sapiens; conditions: Homo sapiens, NCI-H2081;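 further: growth inhibition of human NCI-H2081 cells, read out with a cell viability assay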
Description: SANGER: Inhibition of human NCI-H2081 cell growth in a cell viability assay.

D-392MG = assay: cells; assay type: functional, cell-based; conditions: Homo sapiens
ACHN = assay: cells; assay type: functional, cell-based; conditions: Homo sapiens;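 further: cell viability read-out used to gauge how strongly growth of human ACHN cells is suppressed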
Description: SANGER: Inhibition of human ACHN cell growth in a cell viability assay.

M14 = assay: cells; assay type: functional, cell-based; conditions: Homo sapiens;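 further: growth inhibition of M14 cells, read out with a cell viability assay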
Description: SANGER: Inhibition of human M14 cell growth in a cell viability assay.

HOS = assay: cells; assay type: functional, cell-based; conditions: Homo sapiens;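 further: growth inhibition of human HOS cells, read out with a cell viability assay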
Description: SANGER: Inhibition of human HOS cell growth in a cell viability assay.

MDA-MB-231 = assay: cells; assay type: functional, cell-based; conditions: Homo sapiens
Description: SANGER: Inhibition of human MDA-MB-231 cell growth in a cell viability assay.

U-118-MG = assay: cells; assay type: functional, cell-based; conditions: Homo sapiens
Description: SANGER: Inhibition of human U-118-MG cell growth in a cell viability assay.

COR-L105 = assay: cells; assay type: functional, cell-based; conditions: Homo sapiens
Description: SANGER: Inhibition of human COR-L105 cell growth in a cell viability assay.

C3A = assay: cells; assay type: functional, cell-based; conditions: Homo sapiens;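 further: growth inhibition of C3A human cells, quantified with a cell viability readout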
Description: SANGER: Inhibition of human C3A cell growth in a cell viability assay.

DBTRG-05MG = assay: cells; assay type: functional, cell-based; conditions: Homo sapiens;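 further: cell viability assay measuring growth inhibition of human DBTRG-05MG cells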
Description: SANGER: Inhibition of human DBTRG-05MG cell growth in a cell viability assay.

SK-N-AS = assay: cells; assay type: functional, cell-based; conditions: Homo sapiens;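 further: growth inhibition of human SK-N-AS cells, measured with a cell viability assay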
Description: SANGER: Inhibition of human SK-N-AS cell growth in a cell viability assay.

NY = assay: cells; assay type: functional, cell-based; conditions: Homo sapiens
Description: SANGER: Inhibition of human NY cell growth in a cell viability assay.

RPMI-2650 = assay: cells; assay type: functional, cell-based; conditions: Homo sapiens
Description: SANGER: Inhibition of human RPMI-2650 cell growth in a cell viability assay.

SW626 = assay: cells; assay type: functional, cell-based; conditions: Homo sapiens;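 further: growth inhibition of SW626 cells, measured with a cell viability assay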
Description: SANGER: Inhibition of human SW626 cell growth in a cell viability assay.

HCC1954 = assay: cells; assay type: functional, cell-based; conditions: Homo sapiens;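 further: growth inhibition of human HCC1954 cells, read out with a cell viability assay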
Description: SANGER: Inhibition of human HCC1954 cell growth in a cell viability assay.

SNU-423 = assay: cells; assay type: functional, cell-based; conditions: Homo sapiens
Description: SANGER: Inhibition of human SNU-423 cell growth in a cell viability assay.

8305C = assay: cells; assay type: functional, cell-based; conditions: Homo sapiens
Description: SANGER: Inhibition of human 8305C cell growth in a cell viability assay.

KYSE-450 = assay: cells; assay type: functional, cell-based; conditions: Homo sapiens;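 further: cell growth inhibition measured by a viability assay in human KYSE-450 cells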
Description: SANGER: Inhibition of human KYSE-450 cell growth in a cell viability assay.

HuP-T4 = assay: cells; assay type: functional, cell-based; conditions: Homo sapiens;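 further: cell viability assay measuring how much HuP-T4 cell growth is inhibited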
Description: SANGER: Inhibition of human HuP-T4 cell growth in a cell viability assay.

YT = assay: cells; assay type: functional, cell-based, Homo sapiens; conditions: Homo sapiens, YT
Description: SANGER: Inhibition of human YT cell growth in a cell viability assay.

NCI-H1417 = assay: cells; assay type: functional, cell-based, Homo sapiens; conditions: Homo sapiens, NCI-H1417;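 further: human NCI-H1417 cells, growth inhibition determined with a cell viability readout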
Description: SANGER: Inhibition of human NCI-H1417 cell growth in a cell viability assay.

LP-1 = assay: cells; assay type: functional, cell-based, Homo sapiens; conditions: Homo sapiens, LP-1;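 further: growth inhibition of human LP-1 cells, with the read-out taken from a cell viability assay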
Description: SANGER: Inhibition of human LP-1 cell growth in a cell viability assay.

NCI-H322M = assay: cells; assay type: functional, cell-based, Homo sapiens; conditions: Homo sapiens, NCI-H322M;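 further: cell viability assay measuring inhibition of growth of human NCI-H322M cells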
Description: SANGER: Inhibition of human NCI-H322M cell growth in a cell viability assay.

COLO-792 = assay: cells; assay type: functional, cell-based; conditions: Homo sapiens
Description: SANGER: Inhibition of human COLO-792 cell growth in a cell viability assay.

SW1417 = assay: cells; assay type: functional, cell-based; conditions: Homo sapiens;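 further: growth inhibition of human SW1417 cells, read out with a cell viability assay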
Description: SANGER: Inhibition of human SW1417 cell growth in a cell viability assay.

T98G = assay: cells; assay type: functional, cell-based; conditions: Homo sapiens;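 further: growth inhibition of T98G cells, read out by a cell viability assay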
Description: SANGER: Inhibition of human T98G cell growth in a cell viability assay.

NCI-H2030 = assay: cells; assay type: functional, cell-based; conditions: Homo sapiens;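 further: growth inhibition of human NCI-H2030 cells, read out by a cell viability assay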
Description: SANGER: Inhibition of human NCI-H2030 cell growth in a cell viability assay.

NCI-H1963 = assay: cells; assay type: functional, cell-based, Homo sapiens; conditions: Homo sapiens, NCI-H1963;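 further: cell growth inhibition of the human line, determined with a cell viability assay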
Description: SANGER: Inhibition of human NCI-H1963 cell growth in a cell viability assay.

U2OS = assay: cells; assay type: functional, cell-based, U-2-OS; conditions: Homo sapiens;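 further: growth inhibition of human U-2-OS cells, determined with a cell viability assay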
Description: SANGER: Inhibition of human U-2-OS cell growth in a cell viability assay.

NCI-H727 = assay: cells; assay type: functional, cell-based; conditions: Homo sapiens;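 further: growth inhibition of human NCI-H727 cells, read out with a cell viability assay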
Description: SANGER: Inhibition of human NCI-H727 cell growth in a cell viability assay.

HEC-1 = assay: cells; assay type: functional, cell-based; conditions: Homo sapiens;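 further: growth inhibition of the cell line, read out with a cell viability assay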
Description: SANGER: Inhibition of human HEC-1 cell growth in a cell viability assay.

JEG-3 = assay: cells; assay type: functional, cell-based; conditions: Homo sapiens;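 further: growth inhibition of human JEG-3 cells, read out with a cell viability assay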
Description: SANGER: Inhibition of human JEG-3 cell growth in a cell viability assay.

BFTC-909 = assay: cells; assay type: functional, cell-based; conditions: Homo sapiens
Description: SANGER: Inhibition of human BFTC-909 cell growth in a cell viability assay.

CHL-1 = assay: cells; assay type: functional, cell-based; conditions: Homo sapiens;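 further: cell growth inhibition, read out with a cell viability assay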
Description: SANGER: Inhibition of human CHL-1 cell growth in a cell viability assay.

NCI-H28 = assay: cells; assay type: functional, cell-based; conditions: Homo sapiens;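 further: growth inhibition of human NCI-H28 cells, read out as cell viability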
Description: SANGER: Inhibition of human NCI-H28 cell growth in a cell viability assay.

SU-DHL-1 = assay: SANGER: Inhibition of human SU-DHL-1 cell growth in a cell viability assay.; assay type: functional, cell-based; conditions: Homo sapiens, SU-DHL-1
CAL-12T = assay: cells; assay type: functional, cell-based; conditions: Homo sapiens;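 further: growth inhibition of human CAL-12T cells, read out with a cell viability assay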
Description: SANGER: Inhibition of human CAL-12T cell growth in a cell viability assay.

Measured: IC50

O=S(=O)(O)c1ccc2cc(/N=N/c3cc(S(=O)(=O)O)c4cccnc4c3O)ccc2c1
> 16000 nM: all assays above

Cc1ccc(C(=O)Nc2ccc(CN3CCN(C)CC3)c(C(F)(F)F)c2)cc1C#Cc1cnc2cccnn12 [PONATINIB]
504 nM: HOS
193 nM: NY | T98G
343 nM: A2780
63.4 nM: G-402
478 nM: ESS-1
273 nM: KYSE-450
381 nM: DBTRG-05MG
312 nM: NCI-H2030
63.8 nM: SU-DHL-1
270 nM: YT
196 nM: NCI-H1703
232 nM: D-392MG
134 nM: SIG-M5
293 nM: ACHN
398 nM: 8305C
not listed: NCI-H2171 | MDA-MB-231
> 512 nM: all other assays above
